ChEMBL document CHEMBL5365497, “Developing Novel Coumarin-Containing Azoles Antifungal Agents by the Scaffold Merging Strategy for Treating Azole-Resistant Candidiasis” (J Med Chem, 2023)
pIC50: −log10 of the molar value. ≈ marks a conversion by molar mass, not a printed value. Calls of active or inactive are those of the source. The rule behind the calls is not given here.

Legend:
Candida albicans [1] = experiment: Antifungal activity against Candida albicans SC5314 assessed as fungal growth inhibition by CLSI based microdilution method; format: functional
Candida albicans [2] = experiment: Induction of ROS production in fluconazole-resistant Candida albicans 904 at 64 ug/ml incubated for 30 mins by fluorescence microscopy; format: functional, organism-based; conditions: dose 64.0 µg/ml
[3] = Cytotoxicity against mouse J774.A1 cells assessed as cell growth inhibition by MTT assay; format: toxicity, cell-based
Candida albicans [4] = experiment: Antifungal activity against fluconazole-resistant Candida albicans 904 assessed as fungal growth inhibition by CLSI based microdilution method; format: functional
Nakaseomyces glabratus = experiment: Antifungal activity against Candida glabrata assessed as fungal growth inhibition by CLSI based microdilution method; format: functional
Candida albicans [5] = experiment: Antifungal activity against fluconazole-resistant Candida albicans 632 assessed as fungal growth inhibition by CLSI based microdilution method; format: functional
Candida albicans [6] = experiment: Antifungal activity against Candida albicans CPCC400616 assessed as fungal growth inhibition by CLSI based microdilution method; format: functional
Candida parapsilosis = experiment: Antifungal activity against Candida parapsilosis assessed as fungal growth inhibition by CLSI based microdilution method; format: functional; conditions: Lodderomyces parapsilosis
Candida albicans [7] = experiment: Antifungal activity against Candida albicans CPCC400616 assessed as reduction in ALS3 expression at 2 ug/ml incubated for 12 hrs by RT-PCR analysis; format: functional, organism-based; conditions: dose 2.0 µg/ml
Candida albicans [8] = experiment: Antifungal activity against fluconazole-resistant Candida albicans 904 assessed as decrease in CDR1 expression at 16 ug/ml measured after 16 hrs by RT-PCR analysis; format: functional, organism-based; conditions: dose 16.0 µg/ml
Cryptococcus neoformans = experiment: Antifungal activity against Cryptococcus neoformans assessed as fungal growth inhibition by CLSI based microdilution method; format: functional
Candida albicans [9] = experiment: Antifungal activity against fluconazole-resistant Candida albicans 904 assessed as reduction in EFG1 expression at 16 ug/ml incubated for 12 hrs by RT-PCR analysis; format: functional, organism-based; conditions: dose 16.0 µg/ml
Candida albicans [10] = experiment: Antifungal activity against Candida albicans CPCC400616 assessed as reduction in TEC1 expression at 2 ug/ml incubated for 12 hrs by RT-PCR analysis; format: functional, organism-based; conditions: dose 2.0 µg/ml
Candida albicans [11] = experiment: Antifungal activity against fluconazole-resistant Candida albicans 904 assessed as decrease in CDR2 expression at 16 ug/ml measured after 16 hrs by RT-PCR analysis; format: functional, organism-based; conditions: dose 16.0 µg/ml
Candida albicans [12] = experiment: Antifungal activity against fluconazole-resistant Candida albicans 904 assessed as reduction in CPH1 expression at 16 ug/ml incubated for 12 hrs by RT-PCR analysis; format: functional, organism-based; conditions: dose 16.0 µg/ml
Candida albicans [13] = experiment: Antifungal activity against fluconazole-resistant Candida albicans CaR assessed as fungal growth inhibition by CLSI based microdilution method; format: functional
[14] = target: T1, Lanosterol 14-alpha demethylase (Candida albicans (strain SC5314 / ATCC MYA-2876) (Yeast), UniProt P10613); experiment: Inhibition of CYP51 in Candida albicans SC5314 assessed as ergosterol level at 0.03125 ug/ml incubated for 24 hrs by GC-MS analysis (reference value: 97.58 %); design: scale not given: the % may be the effect or the level left; conditions: at 0.03125 µg/mL
T1 sequence (P10613 whole entry): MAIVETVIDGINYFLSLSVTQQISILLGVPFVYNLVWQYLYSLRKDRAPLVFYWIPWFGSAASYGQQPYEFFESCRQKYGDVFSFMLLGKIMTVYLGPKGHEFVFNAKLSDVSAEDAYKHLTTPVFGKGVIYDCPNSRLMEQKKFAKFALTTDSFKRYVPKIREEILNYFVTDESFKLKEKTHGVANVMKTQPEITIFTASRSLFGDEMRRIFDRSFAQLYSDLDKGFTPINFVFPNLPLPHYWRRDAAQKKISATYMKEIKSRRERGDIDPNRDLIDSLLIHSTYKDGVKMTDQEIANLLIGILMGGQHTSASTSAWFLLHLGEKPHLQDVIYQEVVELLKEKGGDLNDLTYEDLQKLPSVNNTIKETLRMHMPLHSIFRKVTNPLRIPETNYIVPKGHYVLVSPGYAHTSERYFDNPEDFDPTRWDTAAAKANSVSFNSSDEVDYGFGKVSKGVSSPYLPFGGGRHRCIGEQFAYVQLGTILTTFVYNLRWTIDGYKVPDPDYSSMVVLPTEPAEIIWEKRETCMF

Candida albicans [15] = experiment: Antifungal activity against fluconazole-resistant Candida albicans 17# assessed as fungal growth inhibition by CLSI based microdilution method; format: functional
[16] = Cytotoxicity against human MRC5 cells assessed as cell growth inhibition by MTT assay; format: toxicity, cell-based
Candida albicans [17] = experiment: Antifungal activity against fluconazole-resistant Candida albicans 904 assessed as decrease in MDR1 expression at 16 ug/ml measured after 16 hrs by RT-PCR analysis; format: functional, organism-based; conditions: dose 16.0 µg/ml
Candida albicans [18] = experiment: Antifungal activity against Candida albicans CPCC400616 assessed as reduction in EFG1 expression at 2 ug/ml incubated for 12 hrs by RT-PCR analysis; format: functional, organism-based; conditions: dose 2.0 µg/ml
[19] = target: T1, Lanosterol 14-alpha demethylase; experiment: Inhibition of CYP51 in Candida albicans SC5314 assessed as increase in obtusifoliol level at 0.03125 ug/ml incubated for 24 hrs by GC-MS analysis; conditions: at 0.03125 µg/mL
[20] = Stability in mouse plasma assessed as half life at 1 uM measured for 180 mins by LC-MS/MS analysis; format: ADME, cell-free
Candida albicans [21] = experiment: Antibiofilm activity against fluconazole-resistant Candida albicans 904 incubated for 24 hrs by XTT reduction assay; format: functional, organism-based; conditions: dose <= 128.0 µg/ml
Candida albicans [22] = experiment: Antifungal activity against fluconazole-resistant Candida albicans 901 assessed as fungal growth inhibition by CLSI based microdilution method; format: functional
Candida albicans [23] = experiment: Antifungal activity against fluconazole-resistant Candida albicans 904 assessed as reduction in TEC1 expression at 16 ug/ml incubated for 12 hrs by RT-PCR analysis; format: functional, organism-based; conditions: dose 16.0 µg/ml
Candida albicans [24] = experiment: Antifungal activity against fluconazole-resistant Candida albicans 904 assessed as inhibition of yeast to hypha morphological transition at 16 ug/ml incubated for 4 hrs by inverted microscopy; format: functional, organism-based; conditions: dose 16.0 µg/ml
[25] = target: T1, Lanosterol 14-alpha demethylase; experiment: Inhibition of CYP51 in Candida albicans SC5314 assessed as increase in lanosterol level at 0.03125 ug/ml incubated for 24 hrs by GC-MS analysis; conditions: at 0.03125 µg/mL
Candida tropicalis = experiment: Antifungal activity against Candida tropicalis assessed as fungal growth inhibition by CLSI based microdilution method; format: functional
Candida albicans [26] = experiment: Antifungal activity against Candida albicans CPCC400616 assessed as reduction in CPH1 expression at 2 ug/ml incubated for 12 hrs by RT-PCR analysis; format: functional, organism-based; conditions: dose 2.0 µg/ml
Candida albicans [27] = experiment: Antifungal activity against fluconazole-resistant Candida albicans 904 assessed as decrease in ERG11 expression at 16 ug/ml measured after 16 hrs by RT-PCR analysis; format: functional, organism-based; conditions: dose 16.0 µg/ml
[28] = target: T1, Lanosterol 14-alpha demethylase; experiment: Inhibition of CYP51 in Candida albicans SC5314 assessed as increase in eburicol level at 0.03125 ug/ml incubated for 24 hrs by GC-MS analysis; conditions: at 0.03125 µg/mL
[29] = Metabolic stability in mouse liver microsomes assessed as half life incubated for 5 to 60 mins by LC-MS/MS analysis; format: ADME, Microsome; conditions: time 5-60 min
Candida albicans [30] = experiment: Antifungal activity against Candida albicans CPCC400616 assessed as inhibition of yeast to hypha morphological transition at 2 ug/ml incubated for 4 hrs by inverted microscopy; format: functional, organism-based; conditions: dose 2.0 µg/ml
[31] = Stability in mouse plasma assessed as compound remaining at 1 uM measured for 180 mins by LC-MS/MS analysis; format: ADME, cell-free; conditions: read-out: Stability
Candida albicans [32] = experiment: Antifungal activity against fluconazole-resistant Candida albicans 904 assessed as reduction in ALS3 expression at 16 ug/ml incubated for 12 hrs by RT-PCR analysis; format: functional, organism-based; conditions: dose 16.0 µg/ml
Pichia kudriavzevii = experiment: Antifungal activity against Pichia kudriavzevii assessed as fungal growth inhibition by CLSI based microdilution method; format: functional
Candida albicans [33] = experiment: Antibiofilm activity against Candida albicans CPCC400616 incubated for 24 hrs by XTT reduction assay; format: functional, organism-based; conditions: dose <= 128.0 µg/ml
Candida albicans [34] = experiment: Antifungal activity against Candida albicans SC5314 assessed as fragmented nuclei at 16 ug/ml incubated for 24 hrs by TEM analysis; format: functional, organism-based; conditions: dose 16.0 µg/ml
Candida albicans [35] = experiment: Antifungal activity against Candida albicans SC5314 assessed as destruction of cell membrane at 16 ug/ml incubated for 24 hrs by TEM analysis; format: functional, organism-based; conditions: dose 16.0 µg/ml
Candida albicans [36] = experiment: Antifungal activity against fluconazole-resistant Candida albicans 904 assessed as fungal growth inhibition measured for 48 hrs by CLSI based microdilution method; format: functional
Candida albicans [37] = experiment: Antifungal activity against Candida albicans SC5314 assessed as destruction of cell wall at 16 ug/ml incubated for 24 hrs by TEM analysis; format: functional, organism-based; conditions: dose 16.0 µg/ml

## O=c1ccc2cc(COC(Cn3ccnc3)c3ccc(Cl)cc3Cl)ccc2o1 (centres undefined)
Candida albicans [1]
  MIC: 0.03 µg/mL (≈ 0.0722 µM)
Candida albicans [2]
  Activity: Active
[3]
  pIC50: 4.61
Candida albicans [4]
  MIC: 8 µg/mL (≈ 19.3 µM)
Nakaseomyces glabratus
  MIC: 0.25 µg/mL (≈ 0.602 µM)
Candida albicans [5]
  MIC: 16 µg/mL (≈ 38.5 µM)
Candida albicans [6]
  MIC: 0.06 µg/mL (≈ 0.144 µM)
Candida parapsilosis
  MIC: < 0.25 µg/mL
Candida albicans [7]
  Activity: Active
Candida albicans [8]
  Activity: Active
Cryptococcus neoformans
  MIC: 4 µg/mL (≈ 9.63 µM)
Candida albicans [9]
  Activity: Active
Candida albicans [10]
  Activity: Active
Candida albicans [11]
  Activity: Active
Candida albicans [12]
  Activity: Active
Candida albicans [13]
  MIC: 0.5 µg/mL (≈ 1.2 µM)
[14]
  Activity: 0.99%
Candida albicans [15]
  MIC: 1 µg/mL (≈ 2.41 µM)
[16]
  pIC50: 4.11
Candida albicans [17]
  Activity: Active
Candida albicans [18]
  Activity: Active
[19]
  inhibition (INH): Active
[20]
  half-life at 1 µM: > 360 min
Candida albicans [21]
  Activity: Dose-Dependent Effect
Candida albicans [22]
  MIC: 32 µg/mL (≈ 77.1 µM)
Candida albicans [23]
  Activity: Active
Candida albicans [24]
  inhibition: Active
[25]
  inhibition (INH): Active
Candida tropicalis
  MIC: < 0.25 µg/mL
Candida albicans [26]
  Activity: Active
Candida albicans [27]
  Activity: Active
[28]
  inhibition (INH): Active
[29]
  half-life: 6.09 min
Candida albicans [30]
  inhibition: Active
[31]
  remaining at 3 h, 1 µM: 98.7%
Candida albicans [32]
  Activity: Active
Pichia kudriavzevii
  MIC: 0.5 µg/mL (≈ 1.2 µM)
Candida albicans [33]
  Activity: Dose-Dependent Effect

## OC(Cn1cncn1)(Cn1cncn1)c1ccc(F)cc1F [FLUCONAZOLE]
Candida albicans [34]
  Activity: Active
Candida albicans [1]
  MIC: 0.5 µg/mL (≈ 1.63 µM)
Candida albicans [4]
  MIC: > 128 µg/mL
Nakaseomyces glabratus
  MIC: 32 µg/mL (≈ 104 µM)
Candida albicans [5]
  MIC: > 128 µg/mL
Candida albicans [6]
  MIC: 4 µg/mL (≈ 13.1 µM)
Candida parapsilosis
  MIC: 4 µg/mL (≈ 13.1 µM)
Cryptococcus neoformans
  MIC: 4 µg/mL (≈ 13.1 µM)
Candida albicans [13]
  MIC: > 128 µg/mL
Candida albicans [15]
  MIC: > 128 µg/mL
Candida albicans [22]
  MIC: > 128 µg/mL
Candida albicans [35]
  Activity: Active
Candida tropicalis
  MIC: 2 µg/mL (≈ 6.53 µM)
Candida albicans [36]
  MFC: > 128 µg/mL
Pichia kudriavzevii
  MIC: 32 µg/mL (≈ 104 µM)
Candida albicans [37]
  Activity: inactive
